Converted amounts (≈) assume the structure as drawn. Numbered stars: 1 amine (or outer) side, 2 acyl side, 3 side chain; on linkers, the order of the positions; unused ones are H or OH. Bridge positions count the residues as written; N and C are the ends. Square brackets hold non-standard residues; d marks the D form. Peptide text beside a SMILES is read from it. Phe(3R-OH) = O=C([C@@H](N[*:1])[C@H](O[*:3])c1ccccc1)[*:2]; Asn(3S-OH) = NC(=O)[C@@H](O)[C@H](N)C(=O)O; Leu(3R-OH) = CC(C)[C@@H](O)[C@H](N)C(=O)O; aThr = C[C@H](O)[C@H](N)C(=O)O
Assays:
[1] = system: Coagulase-negative staphylococci; assay: microbroth dilution MIC (CLSI), MIC90; format: cell-based
Protocol: (§1) The in vitro antibacterial activity of lysobactin against common mastitis pathogens such as Staphylococcus aureus, Coagulase-negative staphylococci, Streptococcus uberis, Streptococcus dvsgalactiae, Streptococcus agalactiae, Trueperella pyogenes, Escherichia coli, or Klebsiella pneumoniae was assessed by microbroth dilution MIC methodology as described by the Clinical and Laboratory Standards Institute (CLSI) in order to obtain the Minimal Inhibitory Concentration (MIC), which is defined as the lowest concentration of a substance that prevents visible growth of a bacterium. The results expressed as MIC90 are summarized in the following table, where the MIC90 is defined as the concentration at which the growth of at least 90% of the strains of a given species is inhibited.

Escherichia coli = assay: microbroth dilution MIC (CLSI), MIC90; format: cell-based
Protocol: as §1

Klebsiella pneumoniae = assay: microbroth dilution MIC (CLSI), MIC90; format: cell-based
Protocol: as §1

Staphylococcus aureus = assay: microbroth dilution MIC (CLSI), MIC90; format: cell-based
Protocol: as §1

Streptococcus agalactiae = assay: microbroth dilution MIC (CLSI), MIC90; format: cell-based
Protocol: as §1

[2] = system: Streptococcus dysgalactiae; assay: microbroth dilution MIC (CLSI), MIC90; format: cell-based
Protocol: as §1

Streptococcus uberis [3] = assay: microbroth dilution MIC (CLSI), MIC90; format: cell-based
Protocol: as §1

Trueperella pyogenes = assay: microbroth dilution MIC (CLSI), MIC90; format: cell-based
Protocol: as §1

[4] = system: Staphylococcus aureus ATCC 29740; assay: in vitro kill kinetics in milk; format: cell-based; conditions: at 24 h; full-fat milk; 4, 8, 16, 32 and 64 μg/mL
Protocol: (§2) In order to assess the ability of lysobactin to kill bacteria in milk, flasks containing different concentrations of lysobactin in store-bought full-fat milk were inoculated with 1-2×10^6 colony forming units/ml of a representative strain of either Staphylococcus aureus or Streptococcus uberis. The flasks were incubated for 24-48 hours in a shaking water bath at 35+/−2° C., and viable bacterial counts in each flask were determined at several time-points by diluting and plating samples on agar plates. A reduction of the number of viable bacteria in the initial inoculum by at least 99.9% is defined as bactericidal activity.
(§3) The kill kinetics of lysobactin against Staphylococcus aureus ATCC 29740 and Streptococcus uberis ATCC 27958 in milk were determined for concentrations of lysobactin of 4, 8, 16, 32 and 64 μg/mL. Results are depicted in FIG. 1 (CFU: colony forming units). A cidality at 24 h and 48 h, respectively, can be postulated for S. aureus and S. uberis.

[5] = system: Streptococcus uberis ATCC 27958; assay: in vitro kill kinetics in milk; format: cell-based; conditions: at 48 h; full-fat milk; 4, 8, 16, 32 and 64 μg/mL
Protocol: as §2, §3

S. uberis = assay: resistance development during serial passaging; format: cell-based, Streptococcus uberis; conditions: constant sub-MIC exposure, 33 days
Protocol: The appearance of MIC changes during constant exposure of bacteria to sub-MIC concentrations of lysobactin was assessed by serial passaging experiments. On the first day the MICs of S. aureus and S. uberis were assessed by microbroth dilution MIC methodology as described by the Clinical and Laboratory Standards Institute (CLSI). Each day for the following 33 consecutive days, bacteria from the well containing the highest concentrations allowing full growth were collected and used to inoculate new 96-well plates and to assess the MIC during constant exposure to lysobactin. The MIC obtained on each day was plotted over time. Rifampicin, which is known to result in quick changes of the MIC, was used as positive control.

in vivo = assay: in vivo; parameters: species or system Holstein cows; conditions: female, Holstein, bovine, 150 mg
Protocol: The study was designed as a non-pivotal study suitable to investigate the milk pharmacokinetics of the active substance lysobactin after single intracisternal application to lactating dairy cows. The active substance was provided in a paraffine based service formulation suitable for intracisternal application containing 150 mg lysobactin B in 10 g oily suspension. The test item was administered as single intracisternal treatment at a dose rate of 150 mg lysobactin to a single hind quarter of four lactating dairy cows each. The dairy cows on study (Holstein cows) represented the target population in age, lactation number, lactation stage, milk yield and breed. The animals were stalled in a tie-barn and were fed with standard feed for dairy cows consisting of corn and grass silage and milk performance feed. Milking was twice daily at a 12 hour interval using a bucket-type milking device. Frequent milk sampling was performed from the treated and respective control quarters prior to (0 h) and over a period of 168 h after treatment (0.5, 1, 2, 4, 6, 8, 12, 24, 36, 48, 60, 72, 84, 96, 120, 144, and 168 h) by manual stripping of the respective udder quarters. Milk samples at routine milking times were gathered prior to milking. Concentrations of the active substance lysobactin in milk were analyzed by HPLC with detection by tandem mass spectrometry. The limit of quantitation was 0.05 mg/L. Pharmacokinetic evaluation of milk concentration data was based on non-compartmental methods and comprised PK-parameters to adequately describe the absorption, distribution and elimination profile of the active substance in milk.

Streptococcus uberis [6] = assay: dairy cow udder infection model with S. uberis; format: in vivo, lactating dairy cows
Protocol: Seventy-two healthy lactating dairy cows were experimentally infected with the mastitis pathogen Streptococcus uberis on two udder quarters per cow. […] Treatments were randomly assigned to 41 (clinical) or 37 (microbiological) udder quarters in total, either 50 mg lysobactin per quarter (in 15/13 quarters), or 150 mg lysobactin (in 15/14 quarters), or Ubrolexin® (in 11/10 quarters) as positive control. The diseased quarters were treated with these intramammary formulations two times with an interval of 24 hours in between. Udders were clinically examined and milk samples were taken before treatment and several times after that until three weeks after the second administration. Milk was inspected visually for deviation in its consistency and samples were evaluated for presence of the challenge organism to confirm the diagnosis mastitis. Diseased udder quarters were considered microbiologically cured when Streptococcus uberis found in milk samples shortly before treatment could not be isolated from any milk sample taken within the time period between the seventh and the twenty-first day after the second treatment. Clinical cure was achieved when the local symptoms of mastitis completely disappeared or were at the most of very slight nature.

[7] = 150 mg per quarter, Day 7 after second treatment

CC[C@H](C)[C@@H]1NC(=O)[C@@H](CCCNC(=N)N)NC(=O)[C@H](CC(C)C)NC(=O)[C@H]([C@H](O)C(C)C)NC(=O)[C@@H](NC(=O)[C@H](CC(C)C)NC(=O)[C@H](N)CC(C)C)[C@@H](c2ccccc2)OC(=O)[C@H](CO)NC(=O)[C@H]([C@H](O)C(N)=O)NC(=O)CNC(=O)[C@H]([C@H](C)O)NC1=O [lysobactin] (H-[dL]L[Phe(3R-OH)][Leu(3R-OH)]L[dR]I[aThr]G[Asn(3S-OH)]S; ester 3-C)
MIC90 [1]: 0.5 µg/mL (≈ 0.392 µM) | MIC90 (Escherichia coli): > 16 µg/mL | MIC90 (Klebsiella pneumoniae): > 16 µg/mL | MIC90 (Staphylococcus aureus): 0.5 µg/mL (≈ 0.392 µM) | MIC90 (Streptococcus agalactiae): 0.25 µg/mL (≈ 0.196 µM) | MIC90 [2]: 0.25 µg/mL (≈ 0.196 µM) | MIC90 (Streptococcus uberis [3]): 0.125 µg/mL (≈ 0.0979 µM) | MIC90 (Trueperella pyogenes): 0.5 µg/mL (≈ 0.392 µM) | kill kinetics, bactericidal activity (cidality) [4]: cidality | kill kinetics, bactericidal activity (cidality) [5]: cidality | MIC change during serial passaging (S. uberis): remain constant | AUC(0-inf) (in vivo): 2320 µg·h/mL | Cmax (in vivo): 342 µg/mL | Tmax (in vivo): 4 h | half-life (in vivo): 11.6 h | AUC(0-t) (in vivo; AUC0-12 h): 1870 µg·h/mL | AUC(0-t) (in vivo; AUC0-24 h): 2210 µg·h/mL | microbiological cure rate (Streptococcus uberis [6]; 50 mg per quarter, 2 treatments 24 h apart, Day 7 after second treatment): 84.6% | local clinical cure rate (Streptococcus uberis [6]; 50 mg per quarter, Day 7 after second treatment): 86.7% | microbiological cure rate (Streptococcus uberis [6]; 50 mg per quarter, Day 21 after second treatment): 92.31% | local clinical cure rate (Streptococcus uberis [6]; [7]): 86.7% | microbiological cure rate (Streptococcus uberis [6]; [7]): 71.4% | microbiological cure rate (Streptococcus uberis [6]; 150 mg per quarter, Day 21 after second treatment): 85.71%
